# Reference: patent US10441582B2 (priority 2016, dated 2019)
# Assays:
# [1] = G5, 20 mg/kg i.v., FIG. 2
# Excerpt: Fifty 5-week-old BALB/c nude mice (produced by Central Lab Animal Inc., Korea) were purchased and acclimated for 1 week before use in the test.
# The data are expressed as mean±S.D. The results were statistically analyzed by ONE-WAY ANOVA and Student's t-test methods.
# MKN-45 cells = assay: MTT assay, cytotoxicity against MKN-45 cells; details: Homo sapiens, MKN-45, 24 h, read-out: IC50 (drug concentration that resulted in 50% of cell viability)
# Method: The MKN-45 cell line was subcultured with RPMI1640 medium (supplemented with L-glutamine and 10% FBS) in a 5% CO2 incubator at 37° C. for 48 hours, and was then used in the test.
# The cell line prepared in (2) above was added to each well.
# Then, the cells were cultured in a 5% CO2 incubator at 37° C. for 24 hours, and 50 μL of MTT reagent was added thereto at a concentration of 2 mg/mL. Then, the cells were incubated in an incubator at 37° C. for 4 hours.
# The cell culture was centrifuged to remove the supernatant, and 200 μL of DMSO was added to each well to dissolve the MTT-stained precipitate, after which the OD540 value at a wavelength of 540 nm was measured with an ELISA reader.
# [2] = tested on: solid tumor of MKN-45 cells; assay: Solid tumor of MKN-45 cells in BALB/c nude mice, intratumoral administration; type: in vivo; details: G5, 20 mg/kg intratumoral, FIG. 9
# Method: After about 2 weeks, the ascites was collected and centrifuged at 2000 rpm, and the precipitate was washed twice and then stained with 0.4% […] blue, thereby obtaining 5×10^6 cells/100 μL.
# In the first administration, a suspension volume of 50 μL/head was used regardless of body weight.
# The medium dose used was a 2-fold dilution of the prepared injectable suspension, and the low dose used was a 4-fold dilution of the prepared injectable suspension.
# The injectable suspension was dissolved by heating to a temperature of 42 to 45° C. on a water bath. Next, 20 μL of the solution was administered to the apex of the tumor by means of a 0.3 mL insulin syringe, and 10 μL of the solution was administered to each of three points of the bottom side of the tumor. Accordingly, a total of 50 μL of the solution was administered to the tumor.
# On the final day of the test, the animals were biopsied and visually observed, and the mean weight of the tumors was measured.
smiles,measurement,setting,value
CC(=O)O[C@H]1C(=O)[C@@]2(C)[C@H]([C@H](OC(=O)c3ccccc3)[C@]3(O)C[C@H](OC(=O)[C@H](O)[C@@H](NC(=O)c4ccccc4)c4ccccc4)C(C)=C1C3(C)C)[C@]1(OC(C)=O)CO[C@@H]1C[C@@H]2O [Paclitaxel],Decrease in body weight,[1],significant decrease in body weight
same,IC50,MKN-45 cells,0.1 µg/mL
same,State of solid tumor (photographs),[2]; 2 weeks after administration,proliferated
same,Proliferation of tumor cells,[2],≥ 5 fold
